Reference: US11678665B2, “Pyrazine-4-carbamate or -urea derivatives as herbicides” (Syngenta Participations AG, priority 2017, dated 2023)

test system: Avena fatua (AVEFA); assay: Pre-emergence herbicidal activity, AVEFA; format: in vivo; set-up: key: 5=total damage to plant; 0=no damage to plant; details: 1000 g/ha, sprayed pre-emergence, evaluated after 13 days, damage score 0-5
Experimental: (§1) Seeds of a variety of test species were sown in standard soil in pots: Triticum aestivium (TRZAW), Avena fatua (AVEFA), Alopecurus myosuroides (ALOMY), Echinochloa crus-galli (ECHCG), Lolium perenne (LOLPE), and Setaria faberi (SETFA). After cultivation for one day (pre-emergence) under controlled conditions in a glasshouse (at 24/16° C., day/night; 14 hours light; 65% humidity), the plants were sprayed with an aqueous spray solution derived from the formulation of the technical active ingredient in acetone/water (50:50) solution containing 0.5% Tween 20 (polyoxyethelyene sorbitan monolaurate, CAS RN 9005-64-5). The test plants were then grown in a glasshouse under controlled conditions (at 24/16° C., day/night; 14 hours light; 65% humidity) and watered twice daily. After 13 days, the test was evaluated (5=total damage to plant; 0=no damage to plant).

Point of comparison: COCCC(=O)Nc1ncc(-c2cncc(F)c2)nc1C [Compound I10], “Control of weed species after pre-emergence application: AVEFA” value 0. Against it:
- CC(=O)N(C)c1ncc(-c2cncc(F)c2)nc1C [Compound I6] — higher, 1
- CC(=O)N(C(C)=O)c1ncc(-c2cncnc2)nc1C(F)(F)F [Compound I8] — the same, 0
- CC(=O)Nc1ncc(-c2cncc(F)c2)nc1C [Compound I9] — the same, 0
- COCCC(=O)N(C(=O)CCOC)c1ncc(-c2cncc(F)c2)nc1C(F)(F)F [Compound I11] — the same, 0
- CCC(=O)N(C(=O)CC)c1ncc(-c2cncnc2)nc1C(F)(F)F [Compound I12] — higher, 1

test system: Avena fatua (AVEFA); assay: Post-emergence herbicidal activity, AVEFA; format: in vivo; details: 1000 g/ha, sprayed post-emergence (8 days cultivation), evaluated after 13 days, damage score 0-5
Experimental: (§2) Seeds of a variety of test species were sown in standard soil in pots: Triticum aestivium (TRZAW), Avena fatua (AVEFA), Alopecurus myosuroides (ALOMY), Echinochloa crus-galli (ECHCG), Lolium perenne (LOLPE), and Setaria faberi (SETFA). After 8 days cultivation (post-emergence) under controlled conditions in a glasshouse (at 24/16° C., day/night; 14 hours light; 65% humidity), the plants were sprayed with an aqueous spray solution derived from the formulation of the technical active ingredient in acetone/water (50:50) solution containing 0.5% Tween 20 (polyoxyethelyene sorbitan monolaurate, CAS RN 9005-64-5). The test plants were then grown in a glasshouse under controlled conditions (at 24/16° C., day/night; 14 hours light; 65% humidity) and watered twice daily. After 13 days, the test was evaluated (5=total damage to plant; 0=no damage to plant).

Point of comparison: CC(=O)N(C)c1ncc(-c2cncc(F)c2)nc1C [Compound I6], “Control of weed species after post-emergence application: AVEFA” value 3. Against it:
- CC(=O)N(C(C)=O)c1ncc(-c2cncnc2)nc1C(F)(F)F [Compound I8] — lower, 2
- CC(=O)Nc1ncc(-c2cncc(F)c2)nc1C [Compound I9] — lower, 2
- COCCC(=O)Nc1ncc(-c2cncc(F)c2)nc1C [Compound I10] — lower, 1
- COCCC(=O)N(C(=O)CCOC)c1ncc(-c2cncc(F)c2)nc1C(F)(F)F [Compound I11] — higher, 4
- CCC(=O)N(C(=O)CC)c1ncc(-c2cncnc2)nc1C(F)(F)F [Compound I12] — lower, 2

test system: Lolium perenne (LOLPE); assay: Post-emergence herbicidal activity, LOLPE; format: in vivo; set-up: key: 5=total damage to plant; 0=no damage to plant; details: 1000 g/ha, sprayed post-emergence (8 days cultivation), evaluated after 13 days, damage score 0-5
Experimental: as §2

Point of comparison: CC(=O)N(C(C)=O)c1ncc(-c2cncnc2)nc1C(F)(F)F [Compound I8], “Control of weed species after post-emergence application: LOLPE” value 1. Against it:
- CC(=O)N(C)c1ncc(-c2cncc(F)c2)nc1C [Compound I6] — higher, 2
- CC(=O)Nc1ncc(-c2cncc(F)c2)nc1C [Compound I9] — lower, 0
- COCCC(=O)Nc1ncc(-c2cncc(F)c2)nc1C [Compound I10] — lower, 0
- COCCC(=O)N(C(=O)CCOC)c1ncc(-c2cncc(F)c2)nc1C(F)(F)F [Compound I11] — the same, 1
- CCC(=O)N(C(=O)CC)c1ncc(-c2cncnc2)nc1C(F)(F)F [Compound I12] — the same, 1

test system: Triticum aestivium (TRZAW); assay: Pre-emergence herbicidal activity, TRZAW; format: in vivo; set-up: key: 5=total damage to plant; 0=no damage to plant; details: 1000 g/ha, sprayed pre-emergence, evaluated after 13 days, damage score 0-5
Experimental: as §1

Point of comparison: CC(=O)N(C)c1ncc(-c2cncc(F)c2)nc1C [Compound I6], “Control of weed species after pre-emergence application: TRAZW” value 0. Against it:
- CC(=O)N(C(C)=O)c1ncc(-c2cncnc2)nc1C(F)(F)F [Compound I8] — the same, 0
- CC(=O)Nc1ncc(-c2cncc(F)c2)nc1C [Compound I9] — the same, 0
- COCCC(=O)Nc1ncc(-c2cncc(F)c2)nc1C [Compound I10] — the same, 0
- COCCC(=O)N(C(=O)CCOC)c1ncc(-c2cncc(F)c2)nc1C(F)(F)F [Compound I11] — higher, 1
- CCC(=O)N(C(=O)CC)c1ncc(-c2cncnc2)nc1C(F)(F)F [Compound I12] — the same, 0

test system: Echinochloa crus-galli (ECHCG); assay: Pre-emergence herbicidal activity, ECHCG; format: in vivo; details: 1000 g/ha, sprayed pre-emergence, evaluated after 13 days, damage score 0-5
Experimental: as §1

Point of comparison: CC(=O)N(C)c1ncc(-c2cncc(F)c2)nc1C [Compound I6], “Control of weed species after pre-emergence application: ECHCG” value 3. Against it:
- CC(=O)N(C(C)=O)c1ncc(-c2cncnc2)nc1C(F)(F)F [Compound I8] — lower, 2
- CC(=O)Nc1ncc(-c2cncc(F)c2)nc1C [Compound I9] — lower, 1
- COCCC(=O)Nc1ncc(-c2cncc(F)c2)nc1C [Compound I10] — lower, 2
- COCCC(=O)N(C(=O)CCOC)c1ncc(-c2cncc(F)c2)nc1C(F)(F)F [Compound I11] — the same, 3
- CCC(=O)N(C(=O)CC)c1ncc(-c2cncnc2)nc1C(F)(F)F [Compound I12] — lower, 2

test system: Triticum aestivium (TRZAW); assay: Post-emergence herbicidal activity, TRZAW; format: in vivo; set-up: key: 5=total damage to plant; 0=no damage to plant; details: 1000 g/ha, sprayed post-emergence (8 days cultivation), evaluated after 13 days, damage score 0-5
Experimental: as §2

Point of comparison: COCCC(=O)N(C(=O)CCOC)c1ncc(-c2cncc(F)c2)nc1C(F)(F)F [Compound I11], “Control of weed species after post-emergence application: TRAZW” value 1. Against it:
- CC(=O)N(C)c1ncc(-c2cncc(F)c2)nc1C [Compound I6] — the same, 1
- CC(=O)N(C(C)=O)c1ncc(-c2cncnc2)nc1C(F)(F)F [Compound I8] — the same, 1
- CC(=O)Nc1ncc(-c2cncc(F)c2)nc1C [Compound I9] — lower, 0
- COCCC(=O)Nc1ncc(-c2cncc(F)c2)nc1C [Compound I10] — lower, 0
- CCC(=O)N(C(=O)CC)c1ncc(-c2cncnc2)nc1C(F)(F)F [Compound I12] — the same, 1

test system: Alopecurus myosuroides (ALOMY); assay: Post-emergence herbicidal activity, ALOMY; format: in vivo; set-up: key: 5=total damage to plant; 0=no damage to plant; details: 1000 g/ha, sprayed post-emergence (8 days cultivation), evaluated after 13 days, damage score 0-5
Experimental: as §2

Point of comparison: CC(=O)Nc1ncc(-c2cncc(F)c2)nc1C [Compound I9], “Control of weed species after post-emergence application: ALOMY” value 0. Against it:
- CC(=O)N(C)c1ncc(-c2cncc(F)c2)nc1C [Compound I6] — higher, 1
- CC(=O)N(C(C)=O)c1ncc(-c2cncnc2)nc1C(F)(F)F [Compound I8] — higher, 1
- COCCC(=O)Nc1ncc(-c2cncc(F)c2)nc1C [Compound I10] — the same, 0
- COCCC(=O)N(C(=O)CCOC)c1ncc(-c2cncc(F)c2)nc1C(F)(F)F [Compound I11] — the same, 0
- CCC(=O)N(C(=O)CC)c1ncc(-c2cncnc2)nc1C(F)(F)F [Compound I12] — higher, 1

test system: Echinochloa crus-galli (ECHCG); assay: Post-emergence herbicidal activity, ECHCG; format: in vivo; set-up: key: 5=total damage to plant; 0=no damage to plant; details: 1000 g/ha, sprayed post-emergence (8 days cultivation), evaluated after 13 days, damage score 0-5
Experimental: as §2

Point of comparison: COCCC(=O)Nc1ncc(-c2cncc(F)c2)nc1C [Compound I10], “Control of weed species after post-emergence application: ECHCG” value 3. Against it:
- CC(=O)N(C)c1ncc(-c2cncc(F)c2)nc1C [Compound I6] — higher, 4
- CC(=O)N(C(C)=O)c1ncc(-c2cncnc2)nc1C(F)(F)F [Compound I8] — higher, 4
- CC(=O)Nc1ncc(-c2cncc(F)c2)nc1C [Compound I9] — lower, 2
- COCCC(=O)N(C(=O)CCOC)c1ncc(-c2cncc(F)c2)nc1C(F)(F)F [Compound I11] — higher, 5
- CCC(=O)N(C(=O)CC)c1ncc(-c2cncnc2)nc1C(F)(F)F [Compound I12] — the same, 3

test system: Lolium perenne (LOLPE); assay: Pre-emergence herbicidal activity, LOLPE; format: in vivo; set-up: key: 5=total damage to plant; 0=no damage to plant; details: 1000 g/ha, sprayed pre-emergence, evaluated after 13 days, damage score 0-5
Experimental: as §1

Point of comparison: COCCC(=O)Nc1ncc(-c2cncc(F)c2)nc1C [Compound I10], “Control of weed species after pre-emergence application: LOLPE” value 0. Against it:
- CC(=O)N(C)c1ncc(-c2cncc(F)c2)nc1C [Compound I6] — the same, 0
- CC(=O)N(C(C)=O)c1ncc(-c2cncnc2)nc1C(F)(F)F [Compound I8] — higher, 1
- CC(=O)Nc1ncc(-c2cncc(F)c2)nc1C [Compound I9] — the same, 0
- COCCC(=O)N(C(=O)CCOC)c1ncc(-c2cncc(F)c2)nc1C(F)(F)F [Compound I11] — the same, 0
- CCC(=O)N(C(=O)CC)c1ncc(-c2cncnc2)nc1C(F)(F)F [Compound I12] — the same, 0

test system: Alopecurus myosuroides (ALOMY); assay: Pre-emergence herbicidal activity, ALOMY; format: in vivo; set-up: key: 5=total damage to plant; 0=no damage to plant; details: 1000 g/ha, sprayed pre-emergence, evaluated after 13 days, damage score 0-5
Experimental: as §1

Point of comparison: CCC(=O)N(C(=O)CC)c1ncc(-c2cncnc2)nc1C(F)(F)F [Compound I12], “Control of weed species after pre-emergence application: ALOMY” value 0. Against it:
- CC(=O)N(C)c1ncc(-c2cncc(F)c2)nc1C [Compound I6] — the same, 0
- CC(=O)N(C(C)=O)c1ncc(-c2cncnc2)nc1C(F)(F)F [Compound I8] — the same, 0
- CC(=O)Nc1ncc(-c2cncc(F)c2)nc1C [Compound I9] — the same, 0
- COCCC(=O)Nc1ncc(-c2cncc(F)c2)nc1C [Compound I10] — the same, 0
- COCCC(=O)N(C(=O)CCOC)c1ncc(-c2cncc(F)c2)nc1C(F)(F)F [Compound I11] — the same, 0

test system: Setaria faberi (SETFA); assay: Post-emergence herbicidal activity, SETFA; format: in vivo; set-up: key: 5=total damage to plant; 0=no damage to plant; details: 1000 g/ha, sprayed post-emergence (8 days cultivation), evaluated after 13 days, damage score 0-5
Experimental: as §2

Point of comparison: CC(=O)Nc1ncc(-c2cncc(F)c2)nc1C [Compound I9], “Control of weed species after post-emergence application: SETFA” value 3. Against it:
- CC(=O)N(C)c1ncc(-c2cncc(F)c2)nc1C [Compound I6] — higher, 5
- CC(=O)N(C(C)=O)c1ncc(-c2cncnc2)nc1C(F)(F)F [Compound I8] — higher, 5
- COCCC(=O)Nc1ncc(-c2cncc(F)c2)nc1C [Compound I10] — lower, 2
- COCCC(=O)N(C(=O)CCOC)c1ncc(-c2cncc(F)c2)nc1C(F)(F)F [Compound I11] — higher, 5
- CCC(=O)N(C(=O)CC)c1ncc(-c2cncnc2)nc1C(F)(F)F [Compound I12] — higher, 4

test system: Setaria faberi (SETFA); assay: Pre-emergence herbicidal activity, SETFA; format: in vivo; set-up: key: 5=total damage to plant; 0=no damage to plant; details: 1000 g/ha, sprayed pre-emergence, evaluated after 13 days, damage score 0-5
Experimental: as §1

Point of comparison: CC(=O)Nc1ncc(-c2cncc(F)c2)nc1C [Compound I9], “Control of weed species after pre-emergence application: SETFA” value 4. Against it:
- CC(=O)N(C)c1ncc(-c2cncc(F)c2)nc1C [Compound I6] — higher, 5
- CC(=O)N(C(C)=O)c1ncc(-c2cncnc2)nc1C(F)(F)F [Compound I8] — the same, 4
- COCCC(=O)Nc1ncc(-c2cncc(F)c2)nc1C [Compound I10] — lower, 2
- COCCC(=O)N(C(=O)CCOC)c1ncc(-c2cncc(F)c2)nc1C(F)(F)F [Compound I11] — the same, 4
- CCC(=O)N(C(=O)CC)c1ncc(-c2cncnc2)nc1C(F)(F)F [Compound I12] — lower, 3
